# Results taken from ChEMBL document CHEMBL1158337, “Synthesis and bioassay of a new class of heterocycles pyrrolyl oxadiazoles/thiadiazoles/triazoles” (Eur J Med Chem, 2009).
# Test system: Staphylococcus aureus
# Assay: Antibacterial activity against Staphylococcus aureus at 100 ug/disk after 24 hrs by agar disc-diffusion method
# Assay type: functional
# Settings: read-out: IZ
row,SMILES,zone of inhibition at 100 µg/disc [mm]
1,O=S(=O)(Cc1nnc(S)o1)c1c[nH]cc1S(=O)(=O)c1ccc(Cl)cc1,14
2,O=S(=O)(Cc1nnc(S)s1)c1c[nH]cc1S(=O)(=O)c1ccccc1,18
3,O=S(=O)(Cc1nnc(S)s1)c1c[nH]cc1S(=O)(=O)c1ccc(Cl)cc1,25
4,Nn1c(S)nnc1CS(=O)(=O)c1c[nH]cc1S(=O)(=O)c1ccc(Cl)cc1,32
5,Cc1ccc(S(=O)(=O)c2c[nH]cc2S(=O)(=O)Cc2nnc(S)n2N)cc1,24

# Test system: Staphylococcus aureus
# Assay: Antibacterial activity against Staphylococcus aureus at 200 ug/disk after 24 hrs by agar disc-diffusion method
# Assay type: functional
# Settings: read-out: IZ
row,SMILES,zone of inhibition at 200 µg/disc [mm]
1,O=S(=O)(Cc1nnc(S)o1)c1c[nH]cc1S(=O)(=O)c1ccc(Cl)cc1,17
2,O=S(=O)(Cc1nnc(S)s1)c1c[nH]cc1S(=O)(=O)c1ccccc1,20
3,O=S(=O)(Cc1nnc(S)s1)c1c[nH]cc1S(=O)(=O)c1ccc(Cl)cc1,30
4,Nn1c(S)nnc1CS(=O)(=O)c1c[nH]cc1S(=O)(=O)c1ccc(Cl)cc1,35
5,Cc1ccc(S(=O)(=O)c2c[nH]cc2S(=O)(=O)Cc2nnc(S)n2N)cc1,28

# Test system: Bacillus subtilis
# Assay: Antibacterial activity against Bacillus subtilis at 100 ug/disk after 24 hrs by agar disc-diffusion method
# Assay type: functional
# Settings: read-out: IZ
row,SMILES,zone of inhibition at 100 µg/disc [mm]
1,O=S(=O)(Cc1nnc(S)o1)c1c[nH]cc1S(=O)(=O)c1ccc(Cl)cc1,14
2,O=S(=O)(Cc1nnc(S)s1)c1c[nH]cc1S(=O)(=O)c1ccccc1,21
3,O=S(=O)(Cc1nnc(S)s1)c1c[nH]cc1S(=O)(=O)c1ccc(Cl)cc1,28
4,Nn1c(S)nnc1CS(=O)(=O)c1c[nH]cc1S(=O)(=O)c1ccc(Cl)cc1,34
5,Cc1ccc(S(=O)(=O)c2c[nH]cc2S(=O)(=O)Cc2nnc(S)n2N)cc1,25

# Test system: Bacillus subtilis
# Assay: Antibacterial activity against Bacillus subtilis at 200 ug/disk after 24 hrs by agar disc-diffusion method
# Assay type: functional
# Settings: read-out: IZ
row,SMILES,zone of inhibition at 200 µg/disc [mm]
1,O=S(=O)(Cc1nnc(S)o1)c1c[nH]cc1S(=O)(=O)c1ccc(Cl)cc1,18
2,O=S(=O)(Cc1nnc(S)s1)c1c[nH]cc1S(=O)(=O)c1ccccc1,23
3,O=S(=O)(Cc1nnc(S)s1)c1c[nH]cc1S(=O)(=O)c1ccc(Cl)cc1,32
4,Nn1c(S)nnc1CS(=O)(=O)c1c[nH]cc1S(=O)(=O)c1ccc(Cl)cc1,38
5,Cc1ccc(S(=O)(=O)c2c[nH]cc2S(=O)(=O)Cc2nnc(S)n2N)cc1,27

# Test system: Escherichia coli
# Assay: Antibacterial activity against Escherichia coli at 100 ug/disk after 24 hrs by agar disc-diffusion method
# Assay type: functional
# Settings: read-out: IZ
row,SMILES,zone of inhibition at 100 µg/disc [mm]
1,O=S(=O)(Cc1nnc(S)o1)c1c[nH]cc1S(=O)(=O)c1ccc(Cl)cc1,10
2,O=S(=O)(Cc1nnc(S)s1)c1c[nH]cc1S(=O)(=O)c1ccccc1,16
3,O=S(=O)(Cc1nnc(S)s1)c1c[nH]cc1S(=O)(=O)c1ccc(Cl)cc1,22
4,Nn1c(S)nnc1CS(=O)(=O)c1c[nH]cc1S(=O)(=O)c1ccc(Cl)cc1,23
5,Cc1ccc(S(=O)(=O)c2c[nH]cc2S(=O)(=O)Cc2nnc(S)n2N)cc1,20

# Test system: Escherichia coli
# Assay: Antibacterial activity against Escherichia coli at 200 ug/disk after 24 hrs by agar disc-diffusion method
# Assay type: functional
# Settings: read-out: IZ
row,SMILES,zone of inhibition at 200 µg/disc [mm]
1,O=S(=O)(Cc1nnc(S)o1)c1c[nH]cc1S(=O)(=O)c1ccc(Cl)cc1,12
2,O=S(=O)(Cc1nnc(S)s1)c1c[nH]cc1S(=O)(=O)c1ccccc1,20
3,O=S(=O)(Cc1nnc(S)s1)c1c[nH]cc1S(=O)(=O)c1ccc(Cl)cc1,27
4,Nn1c(S)nnc1CS(=O)(=O)c1c[nH]cc1S(=O)(=O)c1ccc(Cl)cc1,25
5,Cc1ccc(S(=O)(=O)c2c[nH]cc2S(=O)(=O)Cc2nnc(S)n2N)cc1,24

# Test system: Klebsiella pneumoniae
# Assay: Antibacterial activity against Klebsiella pneumoniae at 100 ug/disk after 24 hrs by agar disc-diffusion method
# Assay type: functional
# Settings: read-out: IZ
row,SMILES,zone of inhibition at 100 µg/disc [mm]
1,O=S(=O)(Cc1nnc(S)o1)c1c[nH]cc1S(=O)(=O)c1ccc(Cl)cc1,11
2,O=S(=O)(Cc1nnc(S)s1)c1c[nH]cc1S(=O)(=O)c1ccccc1,17
3,O=S(=O)(Cc1nnc(S)s1)c1c[nH]cc1S(=O)(=O)c1ccc(Cl)cc1,23
4,Nn1c(S)nnc1CS(=O)(=O)c1c[nH]cc1S(=O)(=O)c1ccc(Cl)cc1,26
5,Cc1ccc(S(=O)(=O)c2c[nH]cc2S(=O)(=O)Cc2nnc(S)n2N)cc1,21

# Test system: Klebsiella pneumoniae
# Assay: Antibacterial activity against Klebsiella pneumoniae at 200 ug/disk after 24 hrs by agar disc-diffusion method
# Assay type: functional
# Settings: read-out: IZ
row,SMILES,zone of inhibition at 200 µg/disc [mm]
1,O=S(=O)(Cc1nnc(S)o1)c1c[nH]cc1S(=O)(=O)c1ccc(Cl)cc1,13
2,O=S(=O)(Cc1nnc(S)s1)c1c[nH]cc1S(=O)(=O)c1ccccc1,21
3,O=S(=O)(Cc1nnc(S)s1)c1c[nH]cc1S(=O)(=O)c1ccc(Cl)cc1,28
4,Nn1c(S)nnc1CS(=O)(=O)c1c[nH]cc1S(=O)(=O)c1ccc(Cl)cc1,28
5,Cc1ccc(S(=O)(=O)c2c[nH]cc2S(=O)(=O)Cc2nnc(S)n2N)cc1,23

# Test system: Fusarium solani
# Assay: Antifungal activity against Fusarium solani at 100 ug/disk after 48 hrs by agar disc-diffusion method
# Assay type: functional
# Settings: read-out: IZ
row,SMILES,zone of inhibition at 100 µg/disc [mm]
1,O=S(=O)(Cc1nnc(S)o1)c1c[nH]cc1S(=O)(=O)c1ccc(Cl)cc1,18
2,O=S(=O)(Cc1nnc(S)s1)c1c[nH]cc1S(=O)(=O)c1ccccc1,25
3,O=S(=O)(Cc1nnc(S)s1)c1c[nH]cc1S(=O)(=O)c1ccc(Cl)cc1,26
4,Nn1c(S)nnc1CS(=O)(=O)c1c[nH]cc1S(=O)(=O)c1ccc(Cl)cc1,35
5,Cc1ccc(S(=O)(=O)c2c[nH]cc2S(=O)(=O)Cc2nnc(S)n2N)cc1,29

# Test system: Fusarium solani
# Assay: Antifungal activity against Fusarium solani at 200 ug/disk after 48 hrs by agar disc-diffusion method
# Assay type: functional
# Settings: read-out: IZ
row,SMILES,zone of inhibition at 200 µg/disc [mm]
1,O=S(=O)(Cc1nnc(S)o1)c1c[nH]cc1S(=O)(=O)c1ccc(Cl)cc1,21
2,O=S(=O)(Cc1nnc(S)s1)c1c[nH]cc1S(=O)(=O)c1ccccc1,27
3,O=S(=O)(Cc1nnc(S)s1)c1c[nH]cc1S(=O)(=O)c1ccc(Cl)cc1,31
4,Nn1c(S)nnc1CS(=O)(=O)c1c[nH]cc1S(=O)(=O)c1ccc(Cl)cc1,40
5,Cc1ccc(S(=O)(=O)c2c[nH]cc2S(=O)(=O)Cc2nnc(S)n2N)cc1,33

# Test system: Curvularia lunata
# Assay: Antifungal activity against Curvularia lunata at 100 ug/disk after 48 hrs by agar disc-diffusion method
# Assay type: functional
# Settings: read-out: IZ
row,SMILES,zone of inhibition at 100 µg/disc [mm]
1,O=S(=O)(Cc1nnc(S)o1)c1c[nH]cc1S(=O)(=O)c1ccc(Cl)cc1,17
2,O=S(=O)(Cc1nnc(S)s1)c1c[nH]cc1S(=O)(=O)c1ccccc1,28
3,O=S(=O)(Cc1nnc(S)s1)c1c[nH]cc1S(=O)(=O)c1ccc(Cl)cc1,23
4,Nn1c(S)nnc1CS(=O)(=O)c1c[nH]cc1S(=O)(=O)c1ccc(Cl)cc1,38
5,Cc1ccc(S(=O)(=O)c2c[nH]cc2S(=O)(=O)Cc2nnc(S)n2N)cc1,28

# Test system: Curvularia lunata
# Assay: Antifungal activity against Curvularia lunata at 200 ug/disk after 48 hrs by agar disc-diffusion method
# Assay type: functional
# Settings: read-out: IZ
row,SMILES,zone of inhibition at 200 µg/disc [mm]
1,O=S(=O)(Cc1nnc(S)o1)c1c[nH]cc1S(=O)(=O)c1ccc(Cl)cc1,20
2,O=S(=O)(Cc1nnc(S)s1)c1c[nH]cc1S(=O)(=O)c1ccccc1,29
3,O=S(=O)(Cc1nnc(S)s1)c1c[nH]cc1S(=O)(=O)c1ccc(Cl)cc1,25
4,Nn1c(S)nnc1CS(=O)(=O)c1c[nH]cc1S(=O)(=O)c1ccc(Cl)cc1,41
5,Cc1ccc(S(=O)(=O)c2c[nH]cc2S(=O)(=O)Cc2nnc(S)n2N)cc1,35

# Test system: Aspergillus niger
# Assay: Antifungal activity against Aspergillus niger at 100 ug/disk after 48 hrs by agar disc-diffusion method
# Assay type: functional
# Settings: read-out: IZ
row,SMILES,zone of inhibition at 100 µg/disc [mm]
1,O=S(=O)(Cc1nnc(S)o1)c1c[nH]cc1S(=O)(=O)c1ccc(Cl)cc1,15
2,O=S(=O)(Cc1nnc(S)s1)c1c[nH]cc1S(=O)(=O)c1ccccc1,24
3,O=S(=O)(Cc1nnc(S)s1)c1c[nH]cc1S(=O)(=O)c1ccc(Cl)cc1,26
4,Nn1c(S)nnc1CS(=O)(=O)c1c[nH]cc1S(=O)(=O)c1ccc(Cl)cc1,34
5,Cc1ccc(S(=O)(=O)c2c[nH]cc2S(=O)(=O)Cc2nnc(S)n2N)cc1,34

# Test system: Aspergillus niger
# Assay: Antifungal activity against Aspergillus niger at 200 ug/disk after 48 hrs by agar disc-diffusion method
# Assay type: functional
# Settings: read-out: IZ
row,SMILES,zone of inhibition at 200 µg/disc [mm]
1,O=S(=O)(Cc1nnc(S)o1)c1c[nH]cc1S(=O)(=O)c1ccc(Cl)cc1,18
2,O=S(=O)(Cc1nnc(S)s1)c1c[nH]cc1S(=O)(=O)c1ccccc1,29
3,O=S(=O)(Cc1nnc(S)s1)c1c[nH]cc1S(=O)(=O)c1ccc(Cl)cc1,28
4,Nn1c(S)nnc1CS(=O)(=O)c1c[nH]cc1S(=O)(=O)c1ccc(Cl)cc1,37
5,Cc1ccc(S(=O)(=O)c2c[nH]cc2S(=O)(=O)Cc2nnc(S)n2N)cc1,36

# Test system: Staphylococcus aureus
# Assay: Antibacterial activity against Staphylococcus aureus after 24 hrs by microdilution susceptibility method
# Assay type: functional
# Settings: not given
row,MIC [µg/mL],SMILES
1,100,O=S(=O)(Cc1nnc(S)s1)c1c[nH]cc1S(=O)(=O)c1ccc(Cl)cc1
2,12.5,Nn1c(S)nnc1CS(=O)(=O)c1c[nH]cc1S(=O)(=O)c1ccc(Cl)cc1

# Test system: Bacillus subtilis
# Assay: Antibacterial activity against Bacillus subtilis after 24 hrs by microdilution susceptibility method
# Assay type: functional
# Settings: not given
row,MIC [µg/mL],SMILES
1,200,O=S(=O)(Cc1nnc(S)s1)c1c[nH]cc1S(=O)(=O)c1ccc(Cl)cc1
2,50,Nn1c(S)nnc1CS(=O)(=O)c1c[nH]cc1S(=O)(=O)c1ccc(Cl)cc1

# Test system: Escherichia coli
# Assay: Antibacterial activity against Escherichia coli after 24 hrs by microdilution susceptibility method
# Assay type: functional
# Settings: not given
row,MIC [µg/mL],SMILES
1,200,O=S(=O)(Cc1nnc(S)s1)c1c[nH]cc1S(=O)(=O)c1ccc(Cl)cc1
2,50,Nn1c(S)nnc1CS(=O)(=O)c1c[nH]cc1S(=O)(=O)c1ccc(Cl)cc1

# Test system: Klebsiella pneumoniae
# Assay: Antibacterial activity against Klebsiella pneumoniae after […] by microdilution susceptibility method
# Assay type: functional
# Settings: not given
row,MIC [µg/mL],SMILES
1,200,O=S(=O)(Cc1nnc(S)s1)c1c[nH]cc1S(=O)(=O)c1ccc(Cl)cc1
2,50,Nn1c(S)nnc1CS(=O)(=O)c1c[nH]cc1S(=O)(=O)c1ccc(Cl)cc1

# Test system: Fusarium solani
# Assay: Antifungal activity against Fusarium solani after 48 hrs by microdilution susceptibility method
# Assay type: functional
# Settings: not given
row,MIC [µg/mL],SMILES
1,100,O=S(=O)(Cc1nnc(S)s1)c1c[nH]cc1S(=O)(=O)c1ccc(Cl)cc1
2,50,Nn1c(S)nnc1CS(=O)(=O)c1c[nH]cc1S(=O)(=O)c1ccc(Cl)cc1

# Test system: Curvularia lunata
# Assay: Antifungal activity against Curvularia lunata after 48 hrs by microdilution susceptibility method
# Assay type: functional
# Settings: not given
row,MIC [µg/mL],SMILES
1,100,O=S(=O)(Cc1nnc(S)s1)c1c[nH]cc1S(=O)(=O)c1ccc(Cl)cc1
2,12.5,Nn1c(S)nnc1CS(=O)(=O)c1c[nH]cc1S(=O)(=O)c1ccc(Cl)cc1

# Test system: Aspergillus niger
# Assay: Antifungal activity against Aspergillus niger after 48 hrs by microdilution susceptibility method
# Assay type: functional
# Settings: not given
row,MIC [µg/mL],SMILES
1,200,O=S(=O)(Cc1nnc(S)s1)c1c[nH]cc1S(=O)(=O)c1ccc(Cl)cc1
2,25,Nn1c(S)nnc1CS(=O)(=O)c1c[nH]cc1S(=O)(=O)c1ccc(Cl)cc1

# Test system: A549
# Assay: Cytotoxicity against human A549 cells upto 100 uM after 72 hrs by MTT assay in presence of 10% fetal bovine serum
# Assay type: functional, cell-based
# Settings: not given
row,SMILES,Activity
1,O=S(=O)(Cc1nnc(S)s1)c1c[nH]cc1S(=O)(=O)c1ccccc1,Not toxic

# Test system: not listed separately
# Assay: Cytotoxicity against mink CCL64 cells upto 100 uM after 72 hrs by MTT assay in presence of 0.2% fetal bovine serum
# Assay type: cell-based
# Settings: neovison vison, ccl64, 72 h
row,SMILES,Activity
1,O=S(=O)(Cc1nnc(S)s1)c1c[nH]cc1S(=O)(=O)c1ccccc1,Non-toxic
